NC(CO)(CO)CO
solubility (mole fraction)
Conditions	293.2 K	298.2 K	303.2 K	308.2 K	313.2 K
in n-propanol	0.0038	0.005	0.0063	0.0072	0.0088
in water	0.0831	0.092	0.101	0.11	0.123

— BigSolDB 2.1
